# Test results as given in PubChem BioAssay (NCI).
#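 GI50 is the concentration that inhibits growth by half. TGI denotes the concentration required for complete inhibition of growth.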
# Legend:
# Experiment in all cases: NCI tumour cell line growth inhibition, 384-well format
# COLO 205 colon = tested on: COLO 205 colon
# HCC-2998 colon = tested on: HCC-2998 colon
# HL-60(TB) leukemia = tested on: HL-60(TB) leukemia
# MCF7 breast = tested on: MCF7 breast
# SN12C renal = tested on: SN12C renal
# MDA-MB-468 breast = tested on: MDA-MB-468 breast
# 786-0 renal = tested on: 786-0 renal
# OVCAR-4 ovarian = tested on: OVCAR-4 ovarian
# UO-31 renal = tested on: UO-31 renal
# MDA-MB-231 breast = tested on: MDA-MB-231 breast
# LOX IMVI melanoma = tested on: LOX IMVI melanoma
# ACHN renal = tested on: ACHN renal
# HOP-92 NSCLC = tested on: HOP-92 NSCLC
# EKVX NSCLC = tested on: EKVX NSCLC
# SK-MEL-28 melanoma = tested on: SK-MEL-28 melanoma
# SNB-19 CNS = tested on: SNB-19 CNS
# K-562 leukemia = tested on: K-562 leukemia
# NCI-H460 NSCLC = tested on: NCI-H460 NSCLC
# DU-145 prostate = tested on: DU-145 prostate
# NCI-H522 lung = tested on: NCI-H522 lung
# IGROV1 ovarian = tested on: IGROV1 ovarian
# SNB-75 CNS = tested on: SNB-75 CNS
# MDA-MB-435 melanoma = tested on: MDA-MB-435 melanoma
# CCRF-CEM leukemia = tested on: CCRF-CEM leukemia
# HS 578T breast = tested on: HS 578T breast
# SW-620 colon = tested on: SW-620 colon
# CAKI-1 renal = tested on: CAKI-1 renal
# PC-3 prostate = tested on: PC-3 prostate
# UACC-62 melanoma = tested on: UACC-62 melanoma
# SF-295 CNS = tested on: SF-295 CNS
# SF-539 CNS = tested on: SF-539 CNS
# SK-MEL-5 melanoma = tested on: SK-MEL-5 melanoma
# SF-268 CNS = tested on: SF-268 CNS
# MALME-3M melanoma = tested on: MALME-3M melanoma
# NCI-H23 lung = tested on: NCI-H23 lung
# UACC-257 melanoma = tested on: UACC-257 melanoma
# KM12 colon = tested on: KM12 colon
# MOLT-4 leukemia = tested on: MOLT-4 leukemia
# NCI-H322M lung = tested on: NCI-H322M lung
# SK-OV-3 ovarian = tested on: SK-OV-3 ovarian
# OVCAR-3 ovarian = tested on: OVCAR-3 ovarian
# NCI/ADR-RES ovarian = tested on: NCI/ADR-RES ovarian
# OVCAR-8 ovarian = tested on: OVCAR-8 ovarian
# NCI-H226 lung = tested on: NCI-H226 lung
# M14 melanoma = tested on: M14 melanoma
# OVCAR-5 ovarian = tested on: OVCAR-5 ovarian
# RPMI-8226 leukemia = tested on: RPMI-8226 leukemia
# HOP-62 NSCLC = tested on: HOP-62 NSCLC
# SR leukemia = tested on: SR leukemia
# HT29 colon = tested on: HT29 colon
# TK-10 renal = tested on: TK-10 renal
# A498 renal = tested on: A498 renal
# BT-549 breast = tested on: BT-549 breast
# T-47D breast = tested on: T-47D breast
# HCT-15 colon = tested on: HCT-15 colon
# A549 NSCLC = tested on: A549 NSCLC
# RXF 393 renal = tested on: RXF 393 renal
smiles,measurement,setting,value
CCOCC1(COCC)CCC(c2[nH]ncc2CN(C)CCNC)CC1,GI50,COLO 205 colon,20.5 µM
same,TGI,COLO 205 colon,> 100 µM
same,GI50,HCC-2998 colon,16.3 µM
same,TGI,HCC-2998 colon,38.3 µM
same,GI50,HL-60(TB) leukemia,0.123 µM
same,TGI,HL-60(TB) leukemia,2.68 µM
same,GI50,MCF7 breast,29.9 µM
same,TGI,MCF7 breast,> 100 µM
same,GI50,SN12C renal,64.8 µM
same,TGI,SN12C renal,> 100 µM
same,GI50,MDA-MB-468 breast,1.81 µM
same,TGI,MDA-MB-468 breast,35.6 µM
same,GI50,786-0 renal,10.4 µM
same,TGI,786-0 renal,> 100 µM
same,GI50,OVCAR-4 ovarian,> 100 µM
same,TGI,OVCAR-4 ovarian,> 100 µM
same,GI50,UO-31 renal,> 100 µM
same,TGI,UO-31 renal,> 100 µM
same,GI50,MDA-MB-231 breast,42.5 µM
same,TGI,MDA-MB-231 breast,> 100 µM
same,GI50,LOX IMVI melanoma,29.6 µM
same,TGI,LOX IMVI melanoma,> 100 µM
same,GI50,ACHN renal,2.03 µM
same,TGI,ACHN renal,> 100 µM
same,GI50,HOP-92 NSCLC,35.2 µM
same,TGI,HOP-92 NSCLC,> 100 µM
same,GI50,EKVX NSCLC,> 100 µM
same,TGI,EKVX NSCLC,> 100 µM
same,GI50,SK-MEL-28 melanoma,11.3 µM
same,TGI,SK-MEL-28 melanoma,29.3 µM
same,GI50,SNB-19 CNS,> 100 µM
same,TGI,SNB-19 CNS,> 100 µM
same,GI50,K-562 leukemia,4.11 µM
same,TGI,K-562 leukemia,> 100 µM
same,GI50,NCI-H460 NSCLC,8.56 µM
same,TGI,NCI-H460 NSCLC,> 100 µM
same,GI50,DU-145 prostate,> 100 µM
same,TGI,DU-145 prostate,> 100 µM
same,GI50,NCI-H522 lung,96.8 µM
same,TGI,NCI-H522 lung,> 100 µM
same,GI50,IGROV1 ovarian,2.77 µM
same,TGI,IGROV1 ovarian,> 100 µM
same,GI50,SNB-75 CNS,> 100 µM
same,TGI,SNB-75 CNS,> 100 µM
same,GI50,MDA-MB-435 melanoma,58.7 µM
same,TGI,MDA-MB-435 melanoma,> 100 µM
same,GI50,CCRF-CEM leukemia,53.3 µM
same,TGI,CCRF-CEM leukemia,> 100 µM
same,GI50,HS 578T breast,> 100 µM
same,TGI,HS 578T breast,> 100 µM
same,GI50,SW-620 colon,> 100 µM
same,TGI,SW-620 colon,> 100 µM
same,GI50,CAKI-1 renal,3.69 µM
same,TGI,CAKI-1 renal,> 100 µM
same,GI50,PC-3 prostate,> 100 µM
same,TGI,PC-3 prostate,> 100 µM
same,GI50,UACC-62 melanoma,12.6 µM
same,TGI,UACC-62 melanoma,33.3 µM
same,GI50,SF-295 CNS,6.65 µM
same,TGI,SF-295 CNS,> 100 µM
same,GI50,SF-539 CNS,90.4 µM
same,TGI,SF-539 CNS,> 100 µM
same,GI50,SK-MEL-5 melanoma,11.5 µM
same,TGI,SK-MEL-5 melanoma,34.5 µM
same,GI50,SF-268 CNS,> 100 µM
same,TGI,SF-268 CNS,> 100 µM
same,GI50,MALME-3M melanoma,8.61 µM
same,TGI,MALME-3M melanoma,36.3 µM
same,GI50,NCI-H23 lung,> 100 µM
same,TGI,NCI-H23 lung,> 100 µM
same,GI50,UACC-257 melanoma,14.8 µM
same,TGI,UACC-257 melanoma,30.2 µM
same,GI50,KM12 colon,> 100 µM
same,TGI,KM12 colon,> 100 µM
same,GI50,MOLT-4 leukemia,20 µM
same,TGI,MOLT-4 leukemia,> 100 µM
same,GI50,NCI-H322M lung,> 100 µM
same,TGI,NCI-H322M lung,> 100 µM
same,GI50,SK-OV-3 ovarian,47.1 µM
same,TGI,SK-OV-3 ovarian,> 100 µM
same,GI50,OVCAR-3 ovarian,1.75 µM
same,TGI,OVCAR-3 ovarian,> 100 µM
same,GI50,NCI/ADR-RES ovarian,> 100 µM
same,TGI,NCI/ADR-RES ovarian,> 100 µM
same,GI50,OVCAR-8 ovarian,> 100 µM
same,TGI,OVCAR-8 ovarian,> 100 µM
same,GI50,NCI-H226 lung,> 100 µM
same,TGI,NCI-H226 lung,> 100 µM
same,GI50,M14 melanoma,17.6 µM
same,TGI,M14 melanoma,44.7 µM
same,GI50,OVCAR-5 ovarian,28.5 µM
same,TGI,OVCAR-5 ovarian,> 100 µM
same,GI50,RPMI-8226 leukemia,2.52 µM
same,TGI,RPMI-8226 leukemia,57.4 µM
same,GI50,HOP-62 NSCLC,71 µM
same,TGI,HOP-62 NSCLC,> 100 µM
same,GI50,SR leukemia,0.386 µM
same,TGI,SR leukemia,9.85 µM
same,GI50,HT29 colon,10.7 µM
same,TGI,HT29 colon,35.8 µM
same,GI50,TK-10 renal,43.4 µM
same,TGI,TK-10 renal,> 100 µM
same,GI50,A498 renal,5.94 µM
same,TGI,A498 renal,> 100 µM
same,GI50,BT-549 breast,32.7 µM
same,TGI,BT-549 breast,> 100 µM
same,GI50,T-47D breast,27.3 µM
same,TGI,T-47D breast,> 100 µM
same,GI50,HCT-15 colon,18.6 µM
same,TGI,HCT-15 colon,> 100 µM
same,GI50,A549 NSCLC,18.1 µM
same,TGI,A549 NSCLC,> 100 µM
same,GI50,RXF 393 renal,> 100 µM
same,TGI,RXF 393 renal,> 100 µM
